Assay results taken from patent US5565342A (priority 1989, dated 1996).

How the values were obtained:
[1] = test system: RON substance synthetase; assay: Substrate specificity of the enzyme; assay type: biochemical, Leuconostoc mesenteroides subsp. dextranicum, BL-75; conditions: as substrate of the enzyme
[2] = test system: RON substance synthetase; assay: Inhibition and activation of the enzyme by metal chlorides; assay type: biochemical, Leuconostoc mesenteroides subsp. dextranicum, BL-75; conditions: 1 mM metal chloride; not added = 100; 30 min
Description: A substrate solution comprising sucrose (60 w/v %) and an acetate buffer (0.3M, pH 5.5), which was warmed to 30° C. in advance, was mixed with an enzyme solution (0.5 to 1 U/ml) warmed to 30° C. in an amount 4 times the amount of the substrate solution, and the mixture was sufficiently stirred and the reaction was carried out at 30° C. for 30 minutes. To the reaction mixture a 40 mM of NaOH solution was added in an amount 5 times of the amount of the reaction mixture to stop the reaction. The reaction-stopped mixture was appropriately diluted and reducing sugar was determined as fructose by the Somogyi method [M. Somogyi, J. Biol. Chem., 160, 61 (1945)]. As the control, reducing sugar in the enzyme reaction-stopped mixture treated in the same manner without adding sucrose was determined as fructose, and correction was carried out. The quantity of sucrose participating in the reaction was determined from the quantity of fructose.
The relative activities at the addition of the different metal chlorides in the final concentration of 1 mM were determined by the standard method. The relative value was expressed in percent comparing with the activity without addition of any metal chloride.

Compound	Formation of the RON substance (substrate specificity) [1]	Relative Activity [2]
OC[C@H]1O[C@H](O[C@H]2[C@H](O)[C@@H](O)C(O)O[C@@H]2CO)[C@H](O)[C@@H](O)[C@@H]1O (mixture of isomers) [maltose]	not observed	
[Ca+2].[Cl-].[Cl-] [CaCl2]		110%
[Cl-].[Cl-].[Co+2] [CoCl2]		95%
[Cl][Cu][Cl] [CuCl2]		50%
[Cl][Fe][Cl] [FeCl2]		103%
[Cl][Fe]([Cl])[Cl] [FeCl3]		82%
[Cl-].[Cl-].[Mg+2] [MgCl2]		78%
[Cl][Mn][Cl] [MnCl2]		75%
[Cl][Ni][Cl] [NiCl2]		98%
[Cl-].[Cl-].[Zn+2] [ZnCl2]		93%
O=C(CO)[C@@H](O)[C@H](O)[C@H](O)CO [fructose]	not observed	
OC[C@H]1OC(O)[C@H](O)[C@@H](O)[C@@H]1O (some centres unmarked) [glucose]	not observed	
OC[C@H]1O[C@H](OC[C@H]2OC(O)[C@H](O)[C@@H](O)[C@@H]2O)[C@H](O)[C@@H](O)[C@@H]1O (some centres unmarked) [isomaltose]	not observed	
OC[C@H]1O[C@@](CO)(O[C@H]2O[C@H](CO)[C@@H](O)[C@H](O)[C@H]2O)[C@@H](O)[C@@H]1O [sucrose]	reacts only with sucrose	
